The source of these data is PubChem BioAssay (NCI).

What is called TGI is the concentration at which net growth stops. Low values mean greater sensitivity of the cells, high ones lower sensitivity of the cells.

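Assay format: 96-well plates, 48-hour exposure. TGI denotes the concentration required for complete inhibition of growth.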

Test systems include M14 melanoma; MDA-MB-435; SN12C renal; UACC-62 melanoma; MALME-3M melanoma; U251 CNS; HCC-2998 colon; UO-31 renal; RXF 393 renal; DMS 114 small cell lung; DMS 273 small cell lung; HOP-18 NSCLC.
What all share (experiment): DTP human tumour cell line panel, 48 h

`COC(=O)C1Cc2c(C)cccc2C1=O` (stereo unspecified): the TGI in the test with M14 melanoma, in the test with MDA-MB-435, in the test with SN12C renal, with UACC-62 melanoma, in the test with MALME-3M melanoma and in the test on U251 CNS was over 100 µM each time. Further, the TGI in the test on HCC-2998 colon, in the test on UO-31 renal and in the test on RXF 393 renal was over 100 µM each time.

Take `O=C(CCSC(CC(=O)c1ccc(Cl)cc1)c1ccc(Cl)cc1)Nc1ccc(Cl)cc1` (stereo unspecified): the TGI was found to be 28.2 µM in the test on M14 melanoma; 25.6 µM with MDA-MB-435; 24.8 µM in the test with SN12C renal; 21.9 µM with UACC-62 melanoma; 30.6 µM in the test on MALME-3M melanoma; 21.1 µM with U251 CNS. The values for the TGI with HCC-2998 colon, in the test with UO-31 renal and in the test on RXF 393 renal were 27 µM, 26.9 µM and 28.2 µM, respectively.

Take `O=C(Cc1ccc(Cl)c(Cl)c1)NCCCN1CCN(CCCN2CCCCC2)CC1`: the TGI turned out to be 43.1 µM in the test with M14 melanoma; 4.11 µM in the test on MDA-MB-435; 39 µM in the test on SN12C renal; 13.8 µM in the test with UACC-62 melanoma; 34.7 µM with MALME-3M melanoma; 32.5 µM with U251 CNS. For the same compound, the concentration for total growth inhibition (TGI) in the test on HCC-2998 colon is 9.92 µM; in the test on UO-31 renal, 3.63 µM; in the test with RXF 393 renal, 31.1 µM.

For the compound `CCOC(=O)CC(C)C(C#N)(OP1(=O)OC(c2ccccc2)C(C)N1C)c1ccccc1` (stereo unspecified), the TGI in the test on M14 melanoma, in the test with MDA-MB-435, in the test on SN12C renal, in the test on UACC-62 melanoma, in the test with MALME-3M melanoma and in the test on U251 CNS was over 100 µM each time. The TGI with HCC-2998 colon, with UO-31 renal and with RXF 393 renal was over 100 µM each time.

With `CSc1nc2c(c(N(C)C)n1)C=Nn1c(nc3ccccc31)S2`, the TGI in the test with M14 melanoma, with MDA-MB-435, in the test on SN12C renal, with UACC-62 melanoma, in the test with MALME-3M melanoma and with U251 CNS was over 100 µM each time. Besides, the TGI in the test with HCC-2998 colon, with UO-31 renal and with RXF 393 renal was over 100 µM throughout.

As to `CCOC(=O)c1ccc(NC2Oc3cc4c(cc3C(c3cc(OC)c(OC)c(OC)c3)C2C)OCO4)cc1` (stereo unspecified), the TGI in the test on M14 melanoma is over 50.9 µM; in the test with MDA-MB-435, 0.448 µM; with SN12C renal, over 71.5 µM; in the test on UACC-62 melanoma it was 64.5 µM; with MALME-3M melanoma, 0.677 µM; in the test on U251 CNS, over 42.5 µM. Also, the TGI in the test with HCC-2998 colon is 6.32 µM; in the test on UO-31 renal, 4.65 µM; with RXF 393 renal, 93.9 µM.

With `CC(=O)N[C@@H](Cc1ccc(O)cn1)C(=O)NCc1cccc(F)c1`, the TGI in the test with M14 melanoma, in the test on MDA-MB-435, in the test with SN12C renal, with UACC-62 melanoma, in the test with MALME-3M melanoma and with U251 CNS was over 100 µM throughout. Moreover, the TGI with HCC-2998 colon, in the test with UO-31 renal and in the test on RXF 393 renal was over 100 µM each time.

Take `O=C1CC(NC(=O)C(F)(F)F)c2c(Br)sc(N3CCC(c4ccccc4)CC3)c21` (stereo unspecified): the TGI in the test with M14 melanoma was over 100 µM; in the test on MDA-MB-435, over 100 µM; in the test with SN12C renal, over 100 µM; in the test with UACC-62 melanoma it was over 100 µM; in the test on MALME-3M melanoma, over 100 µM; with U251 CNS, 25.5 µM. Further, the TGI in the test with HCC-2998 colon is over 100 µM; in the test on UO-31 renal, over 100 µM; in the test with RXF 393 renal, 88.3 µM.

For the compound `On1c(-c2ccccc2)c(-c2c(-c3ccccc3)n(O)c3ccccc23)c2ccccc21`, the TGI was over 100 µM with SN12C renal; over 100 µM with UACC-62 melanoma; 79.7 µM with MALME-3M melanoma; over 100 µM with U251 CNS; 66 µM in the test on DMS 114 small cell lung; over 100 µM in the test on DMS 273 small cell lung. Further, the figures for the TGI in the test on UO-31 renal, in the test with HOP-18 NSCLC and with RXF 393 renal were 53 µM, 86.3 µM and over 100 µM, respectively.

Regarding `CCOC(=O)C1(Cc2ccc(C)cc2)Cc2ccc(C)cc2C1=O` (stereo unspecified), the TGI is 47.3 µM with M14 melanoma; 12.2 µM with MDA-MB-435; over 100 µM with SN12C renal; over 100 µM in the test on UACC-62 melanoma; over 97.1 µM in the test on MALME-3M melanoma; 35.6 µM in the test with U251 CNS. Moreover, the results for the TGI in the test on HCC-2998 colon, in the test with UO-31 renal and with RXF 393 renal were over 92.7 µM, over 100 µM and 29.5 µM, respectively.

`CN(C)[C@@H]1C(=O)C(C(N)=O)=C(O)[C@@]2(O)C(=O)C3=C(O)c4c(O)cccc4C[C@H]3C[C@@H]12`: the TGI in the test on M14 melanoma stood at 3.87 µM; in the test with UACC-62 melanoma, 3.14 µM; in the test on MALME-3M melanoma it was 2.92 µM; with U251 CNS it was 4.68 µM; in the test with DMS 114 small cell lung, 6.41 µM; with UO-31 renal, 4.08 µM. Moreover, the values for the TGI with HOP-18 NSCLC and in the test with RXF 393 renal were 3.56 µM and 3.11 µM, respectively.

In the case of `CN(NC(=O)c1ccco1)C1=NCCCCN1`, the TGI with M14 melanoma, with MDA-MB-435, in the test with SN12C renal, in the test on UACC-62 melanoma, with MALME-3M melanoma and in the test with U251 CNS was over 100 µM throughout. In addition, the total growth inhibition concentration (TGI) in the test with HCC-2998 colon, in the test on UO-31 renal and with RXF 393 renal was over 100 µM in each case.

For `COc1cc2c(cc1O)[C@H](C)C(c1ccc(Cl)cc1)O2` (stereo partly specified), the TGI worked out at 55.1 µM in the test with M14 melanoma; 92.4 µM in the test on UACC-62 melanoma; 80.6 µM in the test on MALME-3M melanoma; 69 µM with U251 CNS; 36.1 µM in the test with HCC-2998 colon; 30.8 µM in the test on DMS 114 small cell lung. The TGI in the test with DMS 273 small cell lung was 34.5 µM; in the test on UO-31 renal, 79.4 µM; with HOP-18 NSCLC, over 100 µM; in the test with RXF 393 renal, 77.5 µM.

With `C=CCN1C(=O)CS/C1=N\NC(=O)c1c(C)nc2sccn12`, the TGI in the test on SN12C renal, in the test on UACC-62 melanoma, in the test on MALME-3M melanoma, with U251 CNS, in the test on HCC-2998 colon and in the test on DMS 114 small cell lung was over 100 µM throughout. Besides, the TGI in the test with DMS 273 small cell lung, in the test on HOP-18 NSCLC and with RXF 393 renal was over 100 µM in each case.
